Assay results published in EP0117412A1, “Propene derivatives and their use as plant growth inhibitors” (DAICEL CHEMICAL INDUSTRIES, LTD., priority 1983, dated 1984).

What was measured:
Assay in all cases: Test of plant growth inhibiting action on sprouted seeds grown 7 days in a dispersion of wettable powder, visual evaluation
Assay type in all cases: in vivo
Oryza sativa = conditions: 168 h, 20% wettable powder dispersed in water, 25°C, lighted thermostat, visual grade 1-5, read-out: Growth Inhibition, Seed of Plant Oryza sativa (converted); for inhibition at 20 ppm: Concentration 20 ppm; for inhibition at 100 ppm: Concentration 100 ppm
Description: (§1) Test Example (Test of Plant Growth Inhibiting Action)
(§2) 50 parts of talc, 25 parts of bentonite, 2 parts of Sorpol-9047 (surface active agent manufactured by Toho Chemical Co., Ltd.) and 3 parts of Sorpol-5039 (same as above) were thoroughly mixed to form a carrier. 50 weight parts of test compound was mixed with 200 weight parts of the carrier to prepare a 20% wettable powder. The wettable powder was dispersed in pure water to adjust the amount thereof to a definite concentration (see Table If to 17). Seeds of Oryza sativa or rice plant, Echinochloa crus-galli (a kind of millet) and Raphanus sativus (a kind of radish) all of which were forcedly sprouted in a separate dish, were put in the dispersion of wettable powder and grown for 7 days in a lighted thermostat at 25°C and the degree of growth was visually evaluated in accordance with the standard set forth below.
(§3) Standard of Evaluation in Growth Inhibition
(§4) • no influence: 1 • about 25% growth inhibition: 2 • about 50% growth inhibition: 3 • about 75% growth inhibition: 4 • about 100% growth inhibition: 5

Echinochloa crus-galli = conditions: 168 h, 20% wettable powder dispersed in water, 25°C, lighted thermostat, visual grade 1-5, read-out: Growth Inhibition, Seed of Plant Echinochloa crus-galli (converted); for inhibition at 20 ppm: Concentration 20 ppm; for inhibition at 100 ppm: Concentration 100 ppm
Description: as §1, §2, §3, §4

Raphanus sativus = conditions: 168 h, 20% wettable powder dispersed in water, 25°C, lighted thermostat, visual grade 1-5, read-out: Growth Inhibition, Seed of Plant Raphanus sativus (converted); for inhibition at 20 ppm: Concentration 20 ppm; for inhibition at 100 ppm: Concentration 100 ppm
Description: as §1, §2, §3, §4

SMILES	inhibition at 20 ppm (Oryza sativa) [%]	inhibition at 100 ppm (Oryza sativa) [%]	inhibition at 20 ppm (Echinochloa crus-galli) [%]	inhibition at 100 ppm (Echinochloa crus-galli) [%]	inhibition at 20 ppm (Raphanus sativus) [%]	inhibition at 100 ppm (Raphanus sativus) [%]
C=C(COc1ccc(OC)cc1)C(=O)OC [Compound 4-20]	100	100	100	100	0	0
C=C(COc1ccc(C)cc1)C(=O)OC [Compound 4-18]	75	100	100	100	25	100
C=C(COc1ccc2c(C)cc(=O)oc2c1)C(=O)OC [Compound 4-25]	25	100	75	100	0	25
C=C(COc1cccc2c1CCCC2)C(=O)OC [Compound 4-17]	75	100	100	100	0	0
C=C(CSc1ccc(Cl)cc1)C(=O)OC [Compound 4-2, methyl 2-methylene-3-(4-chlorophenyl-thio)propionate]	100	100	100	100	0	25
C=C(COc1ccc(C(F)(F)F)cc1)C(=O)OC [Compound 4-21]	0	100	0	100	25	25
C=C(COc1ccc(Cl)cc1Cl)C(=O)OC [Compound 4-12]	75	100	100	100	0	0
C=C(COc1ccc(Cl)cc1C)C(=O)OC [Compound 4-11]	75	100	100	100	0	25
C=C(CSc1ccccc1)C(=O)OC [Compound 4-1, methyl 2-methylene-3-(phenylthio)propionate]	100	100	100	100	0	25
C=C(COc1cccc(C)c1)C(=O)OC [Compound 4-16]	75	100	100	100	0	25
C=C(CSc1ccc(OC)cc1)C(=O)OC [Compound 4-4]	100	100	100	100	0	25
C=C(COc1ccc(SC)cc1)C(=O)OC [Compound 4-19]	100	100	100	100	0	50
C=C(COc1ccc(C#N)cc1)C(=O)OC [Compound 4-22]	100	100	100	100	50	100
C=C(COc1ccc(C=Cc2ccccc2)cc1)C(=O)OC [Compound 4-28]	25	25	75	75	0	0
C=C(CSCc1ccccc1)C(=O)OC [Compound 4-6]	100	100	100	100	0	25
C=C(COc1ccc(-c2ccccc2)cc1)C(=O)OC [Compound 4-13]	0	0	25	25	0	0
C=C(COc1ccc(F)cc1)C(=O)OC [Compound 4-15, methyl 2-methylene-3-(4-fluorophenoxy)propionate]	50	100	75	100	0	50
C=C(COc1cccc2ncccc12)C(=O)OC [Compound 4-27]	75	100	100	100	0	50
C=C(CSc1ccc(C)cc1)C(=O)OC [Compound 4-3]	75	100	100	100	0	0
C=C(CSc1ccc2ccccc2c1)C(=O)OC [Compound 4-5]	75	100	100	100	0	0
C=C(COc1cccc(Cl)c1)C(=O)OC [Compound 4-14]	100	100	100	100	25	75
C=C(CON(CC)CC)C(=O)OC [Compound 4-26]	0	50	0	25	0	0
C=C(CSC1CCCCC1)C(=O)OC [Compound 4-7]	0	100	75	100	0	0
C=C(CSc1ccccn1)C(=O)OC [Compound 4-8]	0	50	0	25	0	0
C=C(COc1ccccc1)C(=O)OC [Compound 4-10, methyl 2-methylene-3-phenoxypropionate]	75	100	100	100	0	100
C=C(CSCc1ccc(Cl)cc1)C(=O)OC [Compound 4-9]	100	100	100	100	0	50
